Source: patent publication US7402574B2, “Antisense composition and method for treating cancer” (AVI BioPharma, Inc., priority 2004, dated 2008)

Legend:
[1] = test system: HCT-116; experiment: HCT-116 cells treated with sulindac sulfide, apoptosis and proliferation; assay type: cell-based, human; details: 100 μM, 3 days
[2] = test system: SNAIL; experiment: HCT-116 cells treated with sulindac sulfide, SNAIL by RT-PCR; assay type: cell-based, human; details: 100 μM, 3 days, p=0.007
Protocol: (§1) For chemopreventive studies, we treated the human CRC cell line HCT-116 with sulindac sulfide (100 μM) or vehicle for 3 days and analyzed SNAIL and E-Cadherin by RT-PCR. In order to evaluate frequency of SNAIL overexpression in human colon cancer, we immunohistochemically probed a tissue array using a poly clonal antibody. Finally, to determine whether SNAIL is implicated in E-cadherin donwregulation in CRC, we treated 10 week old male MIN mice with antisense PMO to SNAIL (250 μg/day for 5 weeks) and examined E-cadherin levels in the uninvolved intestine using Western blot analysis.

[3] = test system: E-Cadherin; experiment: HCT-116 cells treated with sulindac sulfide, E-Cadherin by RT-PCR; assay type: cell-based, human; details: 100 μM, 3 days
Protocol: as §1

[4] = test system: Apc^Min/+ (MIN) mouse; experiment: MIN mouse, antisense SNAIL PMO IP for four weeks, adenomatous polyp / tumor formation; assay type: in vivo; details: MIN mice, 4 weeks treatment, IP 250 μg per day, five days per week
Source text: The Apc^Min/+ (MIN) mouse is a model for colorectal cancer and was used by the inventors to study the effects of antisense SNAIL PMO on the incidence and development of intestinal precancerous lesions (see e.g. Examples 2&3). The MIN mouse has a germ-line mutation in the adenomatous polyposis coli (Apc) gene which leads to familial adenomatous polyposis (FAP). Inactivation of Apc is found in 80% of sporadic human colorectal cancers and in humans with FAP (Kinzler and Vogelstein 1996). The MIN mouse model mimics the rapid development of adenomatous polyps that affect humans with germ-line inactivation of one Apc gene and therefore is a respected model for human colon carcinogenesis.
This observation clearly supports the role of SNAIL in the progression of colon carcinogenesis and as a potent target for anti-carcinogenic therapies.
Ten week-old MIN mice were injected intraperitonealy (IP) with SNAIL PMO (SEQ ID NO: 11) at a dose of 250 μg per day, five days per week for four weeks. Control mice were not injected with any antisense compound and were allowed to develop colon cancers.

[5] = test system: E-cadherin; experiment: MIN mice treated with antisense PMO to SNAIL, E-cadherin in uninvolved intestine by Western blot; assay type: in vivo, mouse; details: 10 week old male MIN mice, 250 μg/day for 5 weeks, p=0.027
Protocol: as §1

[6] = test system: APC^MIN mouse; experiment: MIN mice, anti-SNAIL PMO daily i.p. 5 weeks, intestinal tumors scored; assay type: in vivo; details: 200 μg/20 g mouse
Protocol: (§2) Sixteen MIN mice (9-10 week old) were randomized to daily i.p. injections for 5 weeks with either saline or anti-SNAIL phosphorodiamidate morpholino antisense oligomers (PMO; 200 μg/20 g mouse). Animals were given BrdU 2 h prior to sacrifice and intestinal tumors were scored under magnification by observers blinded to treatment group. Immunohistochemical analysis was performed on formalin fixed intestinal segments for proliferation (BrdU labeling), apoptosis (using activated caspase 3) and SNAIL downregulation. The samples were scored by a gastrointestinal pathologist.

[7] = test system: SNAIL; experiment: MIN mice, immunohistochemical analysis of intestinal segments for SNAIL downregulation; assay type: in vivo; details: daily i.p. 5 weeks, 200 μg/20 g mouse
Protocol: as §2

[8] = test system: activated caspase 3; experiment: MIN mice, immunohistochemical analysis of intestinal segments for apoptosis (activated caspase 3); assay type: in vivo; details: daily i.p. 5 weeks, 200 μg/20 g mouse, immunohistochemistry, control 1.00 ± 0.74, p < 0.05
Protocol: as §2

[9] = test system: mucosal proliferation (BrdU labeling); experiment: MIN mice, immunohistochemical analysis of intestinal segments for proliferation (BrdU labeling); assay type: in vivo; details: daily i.p. 5 weeks, 200 μg/20 g mouse, BrdU 2 h prior to sacrifice, control 8.92 ± 8.00, p < 0.05
Protocol: as §2

[10] = test system: MIN mice; experiment: Hair loss (alopecia) in PMO treated MIN mice; assay type: in vivo, mouse; details: antisense treated MIN mice, Example 3
Source text: As described above, SNAIL binds the E-box motifs of E-cadherin, and therefore inhibits E-cadherin expression. E cadherin is required for proper hair follicle cycling (Young, Boussadia et al. 2003). E-cadherin binds with β-catenin altering its location within the cell as well as reducing its availability. Decreasing the level of SNAIL leads to increased E-cadherin which then limits the availability of β-catenin. The decrease in β-catenin leads to an increase in genes in the NF-kappa beta pathway, including Fas and TRAF1. […] Antisense SNAIL PMO administered systemically (e.g. intravenous injection as in Example 3) could cause alopecia through Fas-mediated apoptosis of hair follicle cells or because E cadherin levels have increased sufficiently to cause abnormal hair follicle cycling.
as §2

Molecule | apoptosis [1] | proliferation [1] | SNAIL expression (% of vehicle) [2] | E-cadherin expression [3] | reduction in formation of adenomatous polyps, colon [4] [%] | reduction in formation of adenomatous polyps, proximal bowel [4] [%] | total number of tumors reduced [4] [%] | increase in intestinal E-cadherin protein [5] [%] | Tumor incidence (%) ([6]; control 25.06 ± 4.10, p < 0.05) | anti-tumorigenic effect (decrease) ([6]; versus saline control) [%] | SNAIL (Arbit. Units) ([7]; immunohistochemistry, control 2.58 ± 0.67, p < 0.05) | suppression of SNAIL protein expression ([7]; versus saline control) [%] | Cleaved Caspase-3 (Arbit. Units) [8] [Arbit. Units] | BrdU Positive (% Total) [9] [% Total] | hair loss (alopecia) [10] | hair loss (alopecia) ([10]; listed as Antisense SNAIL PMO)
CSc1ccc(/C=C2/C(C)=C(CC(=O)O)c3cc(F)ccc32)cc1 [sulindac sulfide] | induced apoptosis | inhibited proliferation | 39.2 % of vehicle | induction | – | – | – | – | – | – | – | – | – | – | – | –
SNAIL PMO: phosphorodiamidate morpholino antisense oligomer GGAGCGCGGCATGTTGGCC, target ncts. 8-26 of GenBank M95604 (all phosphorodiamidate morpholino (PMO)) | – | – | – | – | 44.1 | 41.6 | 21.9 | 26 | 19.57 ± 6.16 | 22 | 2.00 ± 0.58 | 23 | 1.50 ± 0.65 | 3.43 ± 3.80 | pronounced hair loss (alopecia) | induce alopecia
